By inhibition is commonly meant the change of the read-out against control, counted positive when it falls. As a reminder, the IC50 is the midpoint of a concentration-inhibition curve. A low value points to higher potency.

From paper PMC10672402 (Marine Drugs, 2023) come the findings set out here.

Assay [1] addresses T1, acetylcholinesterase (AChE) (Homo sapiens, UniProt P22303).
T1 construct: purchased Solarbio, Beijing, China
Kind of assay: acetylcholinesterase (AChE) inhibition, modified Ellman method. It counts as biochemical. Conditions: concentration of 50 μg/mL; read-out: inhibition rate against AChE.

In the next assay the target is T2, pancreatic lipase (PL) (Homo sapiens, UniProt P16233).
T2 sequence (P16233 17-465): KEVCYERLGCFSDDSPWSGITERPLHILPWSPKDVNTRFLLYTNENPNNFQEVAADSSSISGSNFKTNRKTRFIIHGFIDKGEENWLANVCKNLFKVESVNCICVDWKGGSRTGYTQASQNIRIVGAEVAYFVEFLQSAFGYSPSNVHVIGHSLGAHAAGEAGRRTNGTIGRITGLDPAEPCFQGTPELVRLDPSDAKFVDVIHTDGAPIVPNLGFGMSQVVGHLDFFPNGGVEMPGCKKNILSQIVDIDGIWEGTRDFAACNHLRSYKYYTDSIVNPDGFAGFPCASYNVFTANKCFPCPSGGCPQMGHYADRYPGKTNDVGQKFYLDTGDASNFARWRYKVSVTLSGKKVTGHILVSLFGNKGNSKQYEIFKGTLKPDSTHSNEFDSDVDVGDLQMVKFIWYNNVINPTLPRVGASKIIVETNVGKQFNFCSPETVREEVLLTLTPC
The assay is described as follows: pancreatic lipase (PL) inhibitory assay. Type of assay: biochemical.

T1 sequence (P22303 32-614, species assumed): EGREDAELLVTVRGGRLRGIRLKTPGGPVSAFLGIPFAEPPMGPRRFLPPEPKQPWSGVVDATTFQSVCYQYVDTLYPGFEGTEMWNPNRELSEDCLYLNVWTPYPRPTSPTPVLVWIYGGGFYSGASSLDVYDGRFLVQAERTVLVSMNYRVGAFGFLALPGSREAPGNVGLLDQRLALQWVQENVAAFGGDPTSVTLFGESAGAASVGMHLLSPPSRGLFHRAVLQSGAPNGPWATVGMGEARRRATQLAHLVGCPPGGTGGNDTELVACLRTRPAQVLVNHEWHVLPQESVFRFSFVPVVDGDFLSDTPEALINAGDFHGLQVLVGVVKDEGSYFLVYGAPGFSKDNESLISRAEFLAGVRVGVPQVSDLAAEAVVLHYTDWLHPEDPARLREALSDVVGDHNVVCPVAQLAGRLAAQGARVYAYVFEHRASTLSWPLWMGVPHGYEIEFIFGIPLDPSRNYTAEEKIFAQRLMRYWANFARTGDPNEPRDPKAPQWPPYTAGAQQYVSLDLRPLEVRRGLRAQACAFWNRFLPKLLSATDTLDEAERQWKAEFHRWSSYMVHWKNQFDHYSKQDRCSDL

`CCC(C)C1(O)OC(C)C2(OC)C(=O)C(C)=C(OC)C12` (centres unmarked) [Compound 1, asperpentenone B]: the inhibition at 50 µg/mL in assay [1] is 20 to 26%.
At pancreatic lipase (PL), `C/C=C/C=C/[C@@H]1Cc2c(CC(=O)O)c(O)cc(O)c2O1` [Compound 3, asperpentenone D] showed an IC50 of 127 µM.
With `CCC(C)C(=O)Cc1oc(=O)c(C)c(O)c1C` (centres unmarked) [Compound 10, paecilpyrone A], the inhibition at 50 µg/mL in assay [1] fell in the range of 20 to 26%.
With `COC(=O)Cc1cccc(O)c1` [Compound 13, methyl-hydroxyphenylaceta], in assay [1], the inhibition at 50 µg/mL lay within 20 to 26%.
Still for that read-out and setting: under `COc1cc(/C=C/C(=O)O)ccc1O` [Compound 14, trans-ferulic acid] stands 20 to 26%.
